Like-named read-outs stand apart in the source and are kept apart here.
Assay: Measurement of log P values by HPLC on reversed phase columns (methods [a] pH 2.3, [b] pH 2.7, [c] pH 7.8)
Type: physicochemical
Conditions: for chromatographic logP: reversed phase HPLC columns, read-out: logP
Method in brief: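 Determined per EEC Directive 79/831 Annex V.A8 by reversed-phase HPLC, 10-95% acetonitrile gradient: [a] pH 2.3, 0.1% phosphoric acid; [b] LC-MS, pH 2.7, 0.1% formic acid; [c] LC-MS, pH 7.8, 0.001 molar ammonium hydrogen carbonate. Calibrated with C3-C16 alkan-2-ones by retention-time interpolation.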

[1] = HPLC on reversed phase columns, method [b], pH 2.7
[2] = method [b], HPLC reversed phase, pH 2.7
[3] = HPLC on reversed phase column, method [b], pH 2.7
[4] = HPLC on reversed phase column, method [c], pH 7.8
[5] = HPLC reversed phase, method [b] (pH 2.7)
[6] = HPLC reversed phase, method [c] pH 7.8
[7] = method [c], HPLC reversed phase, pH 7.8
[8] = pH 2.7, HPLC reversed phase, method [b] (pH 2.7)
[9] = pH 2.7, HPLC on reversed phase columns, method [b] (pH 2.7)

SMILES: O=C(NC1CCC1c1ccc(Cl)cc1C(F)(F)F)c1cccnc1C(F)(F)F (stereo not drawn) [Example 720]
- logP [1]: 3.60^[b]

SMILES: Cn1cc(C(=O)NC2CCC2c2ccc(Cl)cc2C(F)(F)F)c(C(F)F)n1 (stereo not drawn) [Example 718]
- logP [1]: 3.41^[b]

SMILES: Cc1cc(C(=O)N(C2CC2)C2CCCCC2c2ccc(Cl)cc2Cl)c(C)o1 (stereo not drawn) [Example 163]
- logP [2]: 5.85^[b]

SMILES: O=C(NC1CCC1c1ccccc1C(F)(F)F)c1nccnc1C(F)(F)F (stereo not drawn) [Example 604]
- logP [3]: 3.18^[b]
- logP [4]: 3.10^[c];

SMILES: O=C(NC1CCC1c1ccccc1C(F)(F)F)c1cccc(Cl)c1 (stereo not drawn) [Example 436]
- logP [5]: 3.59^[b]

SMILES: O=C(N[C@@H]1CCC[C@@H]1c1ccccc1F)c1ccccc1Cl (relative stereo) [Example 316]
- logP [5]: 3.12^[b]
- logP [6]: 3.08^[c];

SMILES: O=C(N[C@@H]1CC[C@H]1c1cccc(F)c1C(F)(F)F)c1cccc(Cl)c1 (relative stereo) [Example 596]
- logP [3]: 3.92^[b]

SMILES: O=C(NC1CCCCC1c1ccc(Cl)cc1Cl)c1cccnc1Cl (stereo not drawn) [Example 408]
- logP [5]: 3.76^[b]

SMILES: O=C(NC1CC1c1ccc(Cl)cc1Cl)c1c(F)cccc1F (stereo not drawn) [Example 209]
- logP [2]: 3.36^[b]
- logP [7]: 3.29^[c];

SMILES: O=C(N[C@@H]1CC[C@H]1c1cccc(F)c1C(F)(F)F)c1ccc(Cl)cc1Cl (relative stereo) [Example 593]
- logP [3]: 3.50^[b]

SMILES: O=C(N[C@@H]1CC[C@@H]1c1ccc(Cl)cc1C(F)(F)F)c1ncccc1Cl (relative stereo) [Example 699]
- logP [3]: 3.49^[b]

SMILES: O=C(NC1CCCC1c1ccc(Cl)cc1)c1cccnc1C(F)(F)F (stereo not drawn) [Example 283]
- chromatographic logP [8]: 2.83

SMILES: O=C(N[C@@H]1CCC[C@@H]1c1ccccc1F)c1ccccc1Br (relative stereo) [Example 319]
- logP [5]: 3.18^[b]
- logP [6]: 3.14^[c];

SMILES: O=C(N[C@@H]1CC[C@H]1c1ccc(Cl)cc1C(F)(F)F)c1ncccc1Cl (relative stereo) [Example 698]
- logP [3]: 3.84^[b]

SMILES: O=C(NC1CCCC1c1ccccc1C(F)(F)F)c1c(F)cccc1F (stereo not drawn) [Example 320]
- logP [5]: 3.38^[b]

SMILES: CC(C)Oc1ccc([C@H]2CCC[C@H]2NC(=O)c2ccccc2Cl)cc1 (relative stereo) [Example 317]
- logP [5]: 3.74^[b]
- logP [6]: 3.73^[c];

SMILES: O=C(NC1CCCCC1c1ccc(Cl)cc1Cl)c1ccccc1Cl (stereo not drawn) [Example 409]
- logP [5]: 4.47^[b]

SMILES: O=C(N[C@@H]1C[C@@H]1c1ccc(Cl)cc1Cl)c1ccc(Cl)cc1Cl (relative stereo) [Example 613]
- logP [3]: 3.82^[b]
- logP [4]: 3.76^[c];

SMILES: O=C(N[C@@H]1CC[C@H]1c1ccccc1C(F)(F)F)c1c(F)cccc1F (relative stereo) [Example 267]
- logP [5]: 3.24^[b]

SMILES: O=C(NC1CC1c1ccccc1Cl)c1ccccc1Br (stereo not drawn) [Example 48]
- logP [1]: 3.19^[b]

SMILES: O=C(N[C@@H]1CCC[C@@H]1c1ccc(F)c(F)c1)c1ccncc1F (relative stereo) [Example 69]
- logP [1]: 2.59^[b]

SMILES: O=C(N[C@@H]1CC[C@H]1c1ccc(Cl)cc1C(F)(F)F)c1cccc(Cl)c1 (relative stereo) [Example 708]
- logP [3]: 4.46^[b]

SMILES: O=C(N[C@@H]1CCC[C@@H]1c1ccc(C(F)(F)F)cc1)c1cccnc1Cl (relative stereo) [Example 315]
- logP [5]: 3.04^[b]
- logP [6]: 2.98^[c];

SMILES: O=C(N[C@@H]1CCC[C@H]1c1ccc(F)c(F)c1)c1ccsc1I (relative stereo) [Example 129]
- logP [2]: 3.58^[b]

SMILES: Cc1nn(C)cc1C(=O)NC1CCCCC1c1ccc(Cl)cc1 (stereo not drawn) [Example 367]
- logP [5]: 2.49^[b]

SMILES: Cn1nc(C(F)F)c(C(=O)NC2CC2c2ccc(Cl)cc2)c1F (stereo not drawn) [Example 179]
- logP [2]: 2.61^[b]

SMILES: Cc1cccnc1C(=O)N[C@@H]1CCC[C@H]1c1ccc(F)c(F)c1 (relative stereo) [Example 103]
- logP [1]: 3.33^[b]

SMILES: Cc1cc(C(=O)N[C@@H]2CCC[C@@H]2c2ccc(F)c(F)c2)c(C)o1 (relative stereo) [Example 67]
- logP [1]: 3.35^[b]

SMILES: Cc1nn(C)c(F)c1C(=O)N[C@@H]1CCC[C@@H]1c1ccc(F)c(F)c1 (relative stereo) [Example 77]
- logP [1]: 2.60^[b]

SMILES: O=C(NC1CCCCC1c1ccccc1C(F)(F)F)c1cccnc1C(F)(F)F (stereo not drawn) [Example 375]
- logP [5]: 3.68^[b]

SMILES: Cn1nc(C(F)F)c(C(=O)NC2CC2c2cccc(F)c2)c1Cl (stereo not drawn) [Example 191]
- logP [2]: 2.75^[b]

SMILES: O=C(N[C@@H]1CC[C@H]1c1cccc(F)c1C(F)(F)F)c1nccnc1Cl (relative stereo) [Example 646]
- logP [3]: 3.10^[b]

SMILES: Cc1ncccc1C(=O)N[C@@H]1CCC[C@H]1c1ccc(F)c(F)c1 (relative stereo) [Example 63]
- logP [1]: 1.75^[b]

SMILES: O=C(NC1CCCCC1c1ccc(Cl)cc1)c1ccccc1C(F)(F)F (stereo not drawn) [Example 364]
- logP [5]: 3.84^[b]

SMILES: O=C(NC1CCC1c1c(Cl)cccc1Cl)c1cccnc1Cl (stereo not drawn) [Example 725]
- logP [1]: 2.79^[b]

SMILES: Cn1nc(C(F)F)c(C(=O)NC2CC2c2cccc(F)c2)c1F (stereo not drawn) [Example 187]
- logP [2]: 2.59^[b]

SMILES: Cn1nc(C(F)(F)F)c(C(=O)NC2CC2c2ccccc2)c1F (stereo not drawn) [Example 178]
- logP [2]: 2.63^[b]

SMILES: Cc1nc(C(F)(F)F)c(C(=O)NC2CC2c2ccc(Cl)cc2)s1 (stereo not drawn) [Example 28]
- logP [1]: 4.35^[b]

SMILES: Cc1nn(C)cc1C(=O)NC1CCCC1c1ccccc1C(F)(F)F (stereo not drawn) [Example 310]
- logP [5]: 2.47^[b]

SMILES: O=C(N[C@@H]1CC[C@@H]1c1ccc(F)cc1C(F)(F)F)c1cccc(Cl)c1 (relative stereo) [Example 511]
- logP [5]: 3.65^[b]

SMILES: Cn1cc(C(=O)NC2CCCC2c2ccccc2C(F)(F)F)c(C(F)F)n1 (stereo not drawn) [Example 287]
- logP [5]: 3.06^[b]

SMILES: Cc1ncccc1C(=O)N[C@@H]1CCC[C@@H]1c1ccc(F)c(F)c1 (relative stereo) [Example 62]
- logP [1]: 1.67^[b]

SMILES: O=C(NC1CCCCC1c1ccccc1C(F)(F)F)c1cccnc1Cl (stereo not drawn) [Example 387]
- logP [5]: 3.33^[b]

SMILES: Cc1nc(C)c(C(=O)NC2CCCCC2c2ccc(Cl)cc2)s1 (stereo not drawn) [Example 366]
- logP [5]: 3.03^[b]

SMILES: O=C(N[C@@H]1CC[C@@H]1c1c(Cl)cccc1Cl)c1ccccc1Cl [Example 742]
- chromatographic logP [9]: 3.56

SMILES: CCc1nn(C)c(F)c1C(=O)N(C1CC1)C1CCCC1c1ccccc1Cl (stereo not drawn) [Example 172]
- logP [2]: 4.21^[b]

SMILES: O=C(N[C@@H]1CC[C@H]1c1cccc(F)c1C(F)(F)F)c1cccnc1Cl (relative stereo) [Example 648]
- logP [3]: 2.86^[b]

SMILES: Cn1cc(C(=O)NC2CCC2c2c(F)cccc2F)c(C(F)F)n1 (stereo not drawn) [Example 486]
- logP [5]: 2.42^[b]

SMILES: O=C(NC1CCCCC1c1ccccc1Cl)c1ccccc1C(F)(F)F (stereo not drawn) [Example 383]
- logP [5]: 4.01^[b]

SMILES: O=C(NC1CCCC1c1ccccc1Br)c1c(F)cccc1F (stereo not drawn) [Example 347]
- logP [5]: 3.35^[b]

SMILES: O=C(NC1CCCCC1c1ccccc1C(F)(F)F)c1cccnc1C(F)(F)F (stereo not drawn) [Example 385]
- logP [5]: 3.61^[b]

SMILES: Cn1cccc1C(=O)N[C@@H]1CCC[C@@H]1c1ccc(F)c(F)c1 (relative stereo) [Example 111]
- logP [1]: 3.13^[b]

SMILES: O=C(N[C@@H]1CCC[C@@H]1c1ccccc1F)c1c(F)cccc1F (relative stereo) [Example 328]
- logP [5]: 2.95^[b]
- logP [6]: 2.90^[c];

SMILES: O=C(NC1CC1c1ccc(Cl)cc1)c1ccccc1I (stereo not drawn) [Example 199]
- logP [2]: 3.24^[b]
- logP [7]: 3.19^[c];

SMILES: Cc1nc(C(F)(F)F)c(C(=O)N[C@@H]2CCC[C@@H]2c2ccc(C(F)(F)F)cc2)s1 [Example 747]
- chromatographic logP [9]: 3.71

SMILES: O=C(N[C@@H]1CC[C@@H]1c1ccccc1Cl)c1cccnc1Cl (relative stereo) [Example 534]
- logP [5]: 2.40^[b]

SMILES: Cc1nc(C)c(C(=O)NC2CCCC2c2ccccc2Br)s1 (stereo not drawn) [Example 344]
- logP [5]: 2.86^[b]

SMILES: O=C(N[C@@H]1CC[C@H]1c1ccc(Cl)cc1C(F)(F)F)c1ccccc1Cl (relative stereo) [Example 697]
- logP [3]: 4.01^[b]

SMILES: Cn1cc(C(=O)N(C2CC2)C2CCCC2c2ccccc2Cl)c(C(F)F)n1 (stereo not drawn) [Example 156]
- logP [2]: 3.85^[b]

SMILES: O=C(NC1CCCCC1c1ccccc1Cl)c1cccnc1Cl (stereo not drawn) [Example 380]
- logP [5]: 3.16^[b]

SMILES: O=C(N[C@@H]1CC[C@H]1c1cccc(F)c1C(F)(F)F)c1c(F)cccc1F (relative stereo) [Example 640]
- logP [3]: 3.36^[b]

SMILES: O=C(N[C@@H]1CC[C@H]1c1ccc(Cl)cc1Cl)c1cccc(Cl)c1 [Example 454]
- chromatographic logP [8]: 4.4

SMILES: O=C(N[C@@H]1CCC[C@@H]1c1ccc(F)c(F)c1)c1snc(Cl)c1Cl (relative stereo) [Example 121]
- logP [1]: 4.19^[b]

SMILES: O=C(NC1CCC1c1ccccc1Cl)c1ccccc1 (stereo not drawn) [Example 449]
- logP [5]: 2.81^[b]

SMILES: O=C(N[C@@H]1CC[C@H]1c1ccccc1C(F)(F)F)c1cccnc1 (relative stereo) [Example 618]
- logP [3]: 2.26^[b]

SMILES: O=C(N[C@@H]1C[C@@H]1c1ccc(Cl)cc1Cl)c1ccccc1Cl (relative stereo) [Compound 580]
- logP [5]: 3.27^[b]

SMILES: O=C(N[C@@H]1CC[C@@H]1c1ccc(Cl)cc1C(F)(F)F)c1ncc(C(F)(F)F)cc1Cl (relative stereo) [Example 667]
- logP [3]: 4.33^[b]

SMILES: O=C(NC1CCC1c1ccccc1C(F)(F)F)c1ncccc1Br (stereo not drawn) [Example 691]
- logP [3]: 3.34^[b]
- logP [4]: 3.27^[c];

— patent US20160075653A1, “NEMATICIDAL N-(PHENYLCYCLOALKYL)CARBOXAMIDES AND N-(PHENYLCYCLOALKYL)THIOCARBOXAMIDES” (BAYER CROPSCIENCE AKTIENGESELLSCHAFT, priority 2013, published 2016)
